Measured values taken from patent US9867372B2, “Tetrazolinone compound and use of same” (SUMITOMO CHEMICAL COMPANY, LIMITED, priority 2013, dated 2018).

Test system: tomato late blight fungus (Phytophthora infestans)
Experiment: not given
Assay type: in vivo
Details: 500 ppm, sprayed 2 days before inoculation (Test Example 17)

Row | SMILES | area of lesion spots on the treated plant relative to that on an untreated plant [%]
1 | COc1ccc(-c2cccc(OCc3c(C)cccc3-n3nnn(C)c3=O)c2)cn1 [compound 57] | ≤ 30

Test system: cotton aphid (Aphis gossypii)
Experiment: cotton aphid control test on cucumber, spray
Assay type: in vivo
Details: 144 h, 20 mL sprayed, counted after 6 days (Test Example 20)
Method: Thirty (30) heads of cotton aphid (Aphis gossypii) (including adults and larvae) were released on the leaves of cucumber (cultivar: […]) grown in a polyethylene cup until the first true leaf was developed. Next day, 20 mL of the above test chemical solution was sprayed. […] Control value (%)={1-(Cb×Tai)/(Cai×Tb)}×100 wherein symbols in the equation represent the followings: Cb: Number of insects before spraying chemical solution in untreated area; Cai: Number of surviving insects in untreated area; Tb: Number of insects before spraying chemical solution in treated area; and Tai: Number of surviving insects in treated area.

Row | SMILES | pest or weed control at 500 ppm [%]
2 | COc1ccc(-c2cccc(OCc3c(OC)cccc3-n3nnn(C)c3=O)c2)cc1 [compound 44] | ≥ 90
3 | COc1cccc(-c2cccc(OCc3c(C)cccc3-n3nnn(C)c3=O)c2F)c1 [compound 111] | ≥ 90
4 | Cc1ccc(OCc2c(C)cccc2-n2nnn(C)c2=O)cc1-c1ccc(F)cc1 [compound 119] | ≥ 90
5 | Cc1ccc(OCc2c(C)cccc2-n2nnn(C)c2=O)cc1-c1ccc(Cl)cc1 [compound 122] | ≥ 90
6 | Cc1cccc(-n2nnn(C)c2=O)c1COc1cc(-c2ccccc2)ccc1Cl [compound 128] | ≥ 90
7 | Cc1cccc(-n2nnn(C)c2=O)c1COc1cc(-c2ccc(Cl)cc2)ccc1F [compound 134] | ≥ 90
8 | COc1cccc(-c2ccc(Cl)c(OCc3c(C)cccc3-n3nnn(C)c3=O)c2)c1 [compound 135] | ≥ 90
9 | COc1ccc(-c2cc(OCc3c(C)cccc3-n3nnn(C)c3=O)ccc2OC)cn1 [compound 139] | ≥ 90
10 | COc1ccc(-c2cc(C)cc(OCc3c(C)cccc3-n3nnn(C)c3=O)c2)cc1 [compound 142] | ≥ 90
11 | Cc1cc(OCc2c(C)cccc2-n2nnn(C)c2=O)cc(-c2ccccc2)c1 [compound 143] | ≥ 90
12 | Cc1cccc(-n2nnn(C)c2=O)c1COc1cccc(-c2ccc3ocnc3c2)c1 [compound 159] | ≥ 90
13 | COc1ccc(-c2cccc(OCc3c(C)cccc3-n3nnn(C)c3=O)c2)nn1 [compound 165, 1-{2-[3-(3-methoxypyridazin-6-yl)phenoxymethyl]-3-methylphenyl}-4-methyl-1,4-dihydrotetrazol-5-one] | ≥ 90

Test system: common cutworm (Spodoptela litura)
Experiment: common cutworm larvae mortality test, treated artificial diet
Assay type: in vivo
Details: 500 ppm, 2 mL on Insecta LF, third instar larvae, after 6 days (Test Example 25)

Row | SMILES | mortality [%]
14 | COc1ccccc1-c1cccc(OCc2c(C)cccc2-n2nnn(C)c2=O)c1 [compound 52] | 100

Test system: (Adoxophyes orana)
Experiment: Adoxophyes orana larvae mortality test, treated artificial diet
Assay type: in vivo
Details: 500 ppm, 1 mL on Silkmate 2S, first instar larvae, after 7 days (Test Example 26)

Row | SMILES | mortality [%]
15 | COc1ccccc1-c1cccc(OCc2c(C)cccc2-n2nnn(C)c2=O)c1 [compound 52] | 100

Test system: barley net blotch fungus (Pyrenophora teres)
Experiment: barley net blotch control test, foliar spray before inoculation
Assay type: in vivo
Details: 3.1 ppm, sprayed 2 days before inoculation (Test Example 1, Comparative Example 1)

Row | SMILES | area of lesion spots on the treated plant relative to that on an untreated plant [%]
16 | Cn1nnn(-c2ccccc2COc2cccc(-c3ccccc3)n2)c1=O [1-methyl-4-[2-(6-phenylpyridin-2-yloxymethyl)-phenyl]-1,4-dihydrotetrazol-5-one, reference compound] | ≥ 70
17 | Cc1cccc(-n2nnn(C)c2=O)c1COc1cccc(-c2ccccc2)n1 [compound 1, 1-methyl-4-[3-methyl-2-(6-phenylpyridin-2-yloxymethyl)phenyl]-1,4-dihydrotetrazol-5-one] | ≤ 30
